From ChEMBL document CHEMBL1132330 (J Med Chem, 1999)

Experiments:
[1] = tested on: Substance-K receptor (Mesocricetus auratus); assay: Efficacy towards hamster Tachykinin receptor 2 was determined
Substance-K receptor [2] = molecular target: T1, Substance-K receptor (Homo sapiens, UniProt P21452); assay: The compound was tested for competition binding with [3H]NKA against the CHO cells from cloned human Tachykinin receptor 2; assay type: cell-based
T1 sequence (P21452 whole entry): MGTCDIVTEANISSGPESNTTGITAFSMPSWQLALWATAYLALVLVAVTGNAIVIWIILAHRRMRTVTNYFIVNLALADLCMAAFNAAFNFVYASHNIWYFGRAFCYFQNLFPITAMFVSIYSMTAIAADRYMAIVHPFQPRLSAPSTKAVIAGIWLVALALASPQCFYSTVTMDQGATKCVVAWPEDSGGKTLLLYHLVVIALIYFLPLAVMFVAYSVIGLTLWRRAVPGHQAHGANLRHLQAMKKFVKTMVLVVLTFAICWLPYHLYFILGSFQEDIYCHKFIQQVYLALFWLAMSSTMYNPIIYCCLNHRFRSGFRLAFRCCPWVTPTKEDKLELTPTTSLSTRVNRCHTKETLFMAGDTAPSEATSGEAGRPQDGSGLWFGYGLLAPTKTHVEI

Substance-K receptor [3] = molecular target: T1, Substance-K receptor; assay: Inhibitory activity against human Tachykinin receptor 2

| Efficacy [1] | Ki (Substance-K receptor [2]) [nM] | IC50 (Substance-K receptor [3]) [nM] | SMILES |
| --- | --- | --- | --- |
| 97.8 |  |  | CC(C)CC[C@H](NC(=O)[C@H](CC(C)C)NC(=O)CNC(=O)[C@@H](NC(=O)[C@H](Cc1ccc(Cl)cc1)NC(=O)[C@@H](NC(=O)[C@@H](N)CC(=O)O)[C@@H](C)O)C(C)C)C(N)=O |
| 114 |  |  | CC(C)CC[C@H](NC(=O)[C@H](CC(C)C)NC(=O)CNC(=O)[C@@H](NC(=O)[C@H](Cc1ccc(F)cc1)NC(=O)[C@@H](NC(=O)[C@@H](N)CC(=O)O)[C@@H](C)O)C(C)C)C(N)=O |
| 116 |  |  | CC(C)CC[C@H](NC(=O)[C@H](CC(C)C)NC(=O)CNC(=O)[C@@H](NC(=O)[C@H](Cc1ccccc1)NC(=O)[C@@H](NC(=O)[C@@H](N)CC(=O)O)[C@@H](C)O)C(C)C)C(N)=O |
|  | 42.2 | 102 | CSCC[C@H](NC(=O)[C@H](CC(C)C)NC(=O)CNC(=O)[C@@H](NC(=O)[C@H](Cc1ccccc1)NC(=O)[C@H](Cc1ccccc1)NC(=O)[C@H](CC(=O)O)NC(=O)[C@H](Cc1c[nH]cn1)NC(=O)[C@H](CCSC)NC(=O)[C@@H](N)CC(=O)O)C(C)C)C(N)=O [NEUROKININ B] |
